Data on two compounds can be found in paper PMC4309172, “Binding of a fluorescence reporter and a ligand to an odorant-binding protein of the yellow fever mosquito, Aedes aegypti” (F1000Research, 2015).

Molecules are shown by their SMILES.

In assay [1] the target is T1, AaegOBP1 (odorant-binding protein, also named AaegOBP39) (Aedes aegypti, UniProt Q6Y2R8).
T1 construct: recombinant AaegOBP1 (AY189223), periplasmic expression in BL21(DE3), purified and delipidated
T1 sequence (Q6Y2R8 19-143): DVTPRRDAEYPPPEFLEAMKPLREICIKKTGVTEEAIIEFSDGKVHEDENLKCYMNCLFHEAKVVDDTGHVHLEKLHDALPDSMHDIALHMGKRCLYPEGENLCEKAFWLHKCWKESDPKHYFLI
Kind of assay: direct fluorescence titration with NPN, pH […] (Kd […] at pH […]).

Assay [2] concerns the target T1, AaegOBP1 (odorant-binding protein, also named AaegOBP39). Kind of assay: NPN fluorescence displacement/quenching, pH […]; Kd from decreasing phase only ([…]), fluorescence rises at higher doses.

In general, Kd refers to the constant that tells how readily two partners part at equilibrium. A high value points to lower affinity. For `c1ccc(Nc2cccc3ccccc23)cc1` [NPN, N-phenyl-1-naphthylamine], in assay [1], binding was put at a Kd of 3.31 ± 0.48 µM.

Take `CCCCCCCCCC[C@H](OC(C)=O)[C@H]1CCCC(=O)O1` (racemic) [MOP, (5 R,6 S)-6-acetoxy-5-hexadecanolide]: in assay [2], binding was put at a Kd of 2640 ± 160 nM.
